Earlier results as cited in US20050186294A1 (priority 1999, published 2005).
Like-named read-outs stand apart in the source and are kept apart here.

Key:
[1] = test system: cGMP
[2] = larger molecular weight molecules such as Testosterone
[3] = test system: penile erection; conditions: oral, men
[4] = biological target: 5 Phosphodiesterase (Homo sapiens, UniProt O76074); conditions: in vitro, similar Molar concentrations
[5] = after oral arginine supplementation (6 g)

## N=C(N)NCCC[C@H](N)C(=O)O [L-arginine]
After infusion of 6 g
  L-arginine level in the blood: 822 nM/ml
After infusion of 30 g
  L-arginine level in the blood: 6223 nmol/mL
[5]
  blood concentration: 310 µM
[1]; after infusion of 30 g and 6 g
  detectable cGMP excretion rates in urine: rise in detectable cGMP excretion rates in urine
[1]; [5]
  increases in detectable cGMP: not statistically significant

## CC1CCC(C(C)C)C(O)C1 (stereo not drawn) [Menthol]
[2]
  increase of membrane permeability: 2-4 times

## CCCc1nn(C)c2c(=O)[nH]c(-c3cc(S(=O)(=O)N4CCN(C)CC4)ccc3OCC)nc12 [sildenafil]
[3]; after first use
  effectiveness to create a penile erection: 54%
[3]; by the eighth use
  effectiveness to create a penile erection: 86%
[4]
  inhibition of 5 Phosphodiesterase activity: 85%
